From patent US8158821B2, “Crystal of 5-aminolevulinic acid phosphate and process for producing the same” (priority 2006, dated 2012) come the findings set out here.

Data set [1] in a line: Test on moisture absorption resistance (change in mass on standing at 25° C. and 90% RH). It is filed as physicochemical. The conditions noted are these: for ratio of change in mass: 25° C., 90% RH, 1 g solid, phosphate. How it is done: With regard to 5-aminolevulinic acid phosphate, moisture absorption resistance was evaluated by weighing out 1 g of each of the powder obtained by a conventional method (the method described in Example 1 of WO2005/100300 pamphlet) and the crystal obtained in Example 1, allowing it to stand under conditions of 25° C. and 90% RH, subsequently measuring mass after the passage of each period of time, and calculating a ratio of change in mass.

The nature of data set [2]: Thermal stability test (increase in PDPA content on heating, by liquid chromatography). It is filed as physicochemical. As to conditions: for Increase in PDPA concentration in solid: heating time 96 hr, phosphate. How it is done:
With regard to 5-aminolevulinic acid phosphate, 1 g of each of the powder obtained by a conventional method (the method described in Example 1 of WO2005/100300 pamphlet) and the crystal obtained in Example 1 was weighed out and allowed to stand under each condition shown in Table 3. The amount of 2,5-pyrazinedipropionic acid (PDPA), which is an impurity generated by heating and a compound formed by dimerization of 5-aminolevulinic acid molecules, was measured by liquid chromatography. An increase in the content of PDPA in 5-aminolevulinic acid phosphate was calculated and thermal stability as a substance was evaluated.
Analytical conditions for liquid chromatography: separation column: μBondasphere C18 5μ 100 Å manufactured by Waters, eluent: a mixture of 2% aqueous acetic acid solution and methanol in a volume ratio of 90/10, flow rate: 1.0 mL/min, injection amount of sample: 50 μl, column temperature: 40° C., detector: UV detector (276 nm).

Consider `NCC(=O)CCC(=O)O.O=P(O)(O)O` [Powder, 5-aminolevulinic acid phosphate], for which the “ratio of change in mass” value in data set [1] (time passed 1 hr) is on record as “+6%”; in data set [1] (time passed 3 hr), “+11%”; in data set [1] (time passed 5 hr) it was “+14%”; in data set [1] (time passed 6 hr) it was “+16%”; in data set [1] (time passed 7 hr), “+17%”; in data set [1] (time passed 24 hr), “+21%”. In addition, the figures for the “Increase in PDPA concentration in solid” value in data set [2] (heating temperature 30° C.) and in data set [2] (heating temperature 60° C.) were “+10 ppm” and “+302 ppm”, respectively.
As to `NCC(=O)CCC(=O)O.O=P(O)(O)O` [Crystal, 5-aminolevulinic acid phosphate], the “ratio of change in mass” value in data set [1] (time passed 1 hr) is reported as “+0.05%”; in data set [1] (time passed 3 hr) it was “+0.06%”; in data set [1] (time passed 5 hr), “+0.09%”; in data set [1] (time passed 6 hr), “+0.08%”; in data set [1] (time passed 7 hr), “+0.09%”; in data set [1] (time passed 24 hr), “+0.4%”. In addition, the “moisture absorption resistance (in words)” value in data set [1] (as compared with the conventional powder, Table 2) is “excellent in moisture absorption resistance”. Further, the “thermal stability (in words)” value in data set [2] (as compared with the conventional powder, Table 3) was “excellent in thermal stability”. The entries for the “Increase in PDPA concentration in solid” value in data set [2] (heating temperature 30° C.) and in data set [2] (heating temperature 60° C.) were “+0 ppm” and −0 ppm, respectively.
